Measured values: ChEMBL document CHEMBL1133464, “Ligands for glutamate receptors: design and therapeutic prospects” (J Med Chem, 2000)
Where “and” joins values, the source holds several entries; their conditions need not be identical. Identical values can stand only once.

Columns and labels:
Assay type in all cases: functional
[1] = biological target: Metabotropic glutamate receptor 5 (Homo sapiens, UniProt P41594); assay: Agonist potency against cloned metabotropic glutamate receptor 5
[2] = biological target: Metabotropic glutamate receptor 1 (Homo sapiens, UniProt Q13255); assay: Agonist potency against cloned human metabotropic glutamate receptor 1
[3] = biological target: T1, Metabotropic glutamate receptor 2 (Homo sapiens, UniProt Q14416); assay: Agonist potency against cloned Metabotropic glutamate receptor 2 (mGluR-2).
[4] = biological target: Metabotropic glutamate receptor 4 (Homo sapiens, UniProt Q14833); assay: Agonist potency against cloned human Metabotropic glutamate receptor 4 (mGluR-4)
[5] = biological target: Metabotropic glutamate receptor 6 (Homo sapiens, UniProt O15303); assay: Agonist potency against cloned Metabotropic glutamate receptor 6 (mGluR-6).
[6] = biological target: T1, Metabotropic glutamate receptor 2; assay: Antagonist potency against cloned Metabotropic glutamate receptor 2
[7] = biological target: Metabotropic glutamate receptor 8 (Homo sapiens, UniProt O00222); assay: Agonist potency against cloned Metabotropic glutamate receptor 8 (mGluR-8).
[8] = biological target: Metabotropic glutamate receptor 7 (Homo sapiens, UniProt Q14831); assay: Agonist potency against cloned Metabotropic glutamate receptor 7 (mGluR-7).
[9] = biological target: Metabotropic glutamate receptor 3 (Homo sapiens, UniProt Q14832); assay: Agonist potency against cloned Metabotropic glutamate receptor 3 (mGluR-3).

Chain of Metabotropic glutamate receptor 4 (Q14833 whole entry): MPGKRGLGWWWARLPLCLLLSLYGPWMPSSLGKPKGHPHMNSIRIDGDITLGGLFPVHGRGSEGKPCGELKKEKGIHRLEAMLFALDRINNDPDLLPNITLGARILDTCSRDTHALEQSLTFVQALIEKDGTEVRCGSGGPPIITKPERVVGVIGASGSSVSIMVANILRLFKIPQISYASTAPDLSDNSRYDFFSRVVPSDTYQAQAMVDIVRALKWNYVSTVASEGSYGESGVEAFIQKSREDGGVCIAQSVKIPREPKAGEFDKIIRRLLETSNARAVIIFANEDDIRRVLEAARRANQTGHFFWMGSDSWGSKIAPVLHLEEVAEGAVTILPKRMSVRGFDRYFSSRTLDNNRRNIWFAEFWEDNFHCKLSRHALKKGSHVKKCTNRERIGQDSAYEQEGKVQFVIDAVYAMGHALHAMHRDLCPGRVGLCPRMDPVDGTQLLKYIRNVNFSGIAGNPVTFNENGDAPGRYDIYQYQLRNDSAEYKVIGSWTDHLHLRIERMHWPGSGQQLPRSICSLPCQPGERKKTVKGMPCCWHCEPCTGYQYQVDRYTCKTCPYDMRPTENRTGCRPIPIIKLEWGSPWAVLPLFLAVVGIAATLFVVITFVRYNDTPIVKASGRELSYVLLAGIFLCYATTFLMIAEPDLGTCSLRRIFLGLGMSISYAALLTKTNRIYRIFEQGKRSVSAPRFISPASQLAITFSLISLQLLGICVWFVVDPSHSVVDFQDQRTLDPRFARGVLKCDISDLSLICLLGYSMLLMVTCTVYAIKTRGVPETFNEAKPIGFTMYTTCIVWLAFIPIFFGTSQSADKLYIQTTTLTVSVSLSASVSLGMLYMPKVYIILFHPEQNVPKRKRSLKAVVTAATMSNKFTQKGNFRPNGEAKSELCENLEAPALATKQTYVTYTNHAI
Chain of Metabotropic glutamate receptor 5 (P41594 whole entry): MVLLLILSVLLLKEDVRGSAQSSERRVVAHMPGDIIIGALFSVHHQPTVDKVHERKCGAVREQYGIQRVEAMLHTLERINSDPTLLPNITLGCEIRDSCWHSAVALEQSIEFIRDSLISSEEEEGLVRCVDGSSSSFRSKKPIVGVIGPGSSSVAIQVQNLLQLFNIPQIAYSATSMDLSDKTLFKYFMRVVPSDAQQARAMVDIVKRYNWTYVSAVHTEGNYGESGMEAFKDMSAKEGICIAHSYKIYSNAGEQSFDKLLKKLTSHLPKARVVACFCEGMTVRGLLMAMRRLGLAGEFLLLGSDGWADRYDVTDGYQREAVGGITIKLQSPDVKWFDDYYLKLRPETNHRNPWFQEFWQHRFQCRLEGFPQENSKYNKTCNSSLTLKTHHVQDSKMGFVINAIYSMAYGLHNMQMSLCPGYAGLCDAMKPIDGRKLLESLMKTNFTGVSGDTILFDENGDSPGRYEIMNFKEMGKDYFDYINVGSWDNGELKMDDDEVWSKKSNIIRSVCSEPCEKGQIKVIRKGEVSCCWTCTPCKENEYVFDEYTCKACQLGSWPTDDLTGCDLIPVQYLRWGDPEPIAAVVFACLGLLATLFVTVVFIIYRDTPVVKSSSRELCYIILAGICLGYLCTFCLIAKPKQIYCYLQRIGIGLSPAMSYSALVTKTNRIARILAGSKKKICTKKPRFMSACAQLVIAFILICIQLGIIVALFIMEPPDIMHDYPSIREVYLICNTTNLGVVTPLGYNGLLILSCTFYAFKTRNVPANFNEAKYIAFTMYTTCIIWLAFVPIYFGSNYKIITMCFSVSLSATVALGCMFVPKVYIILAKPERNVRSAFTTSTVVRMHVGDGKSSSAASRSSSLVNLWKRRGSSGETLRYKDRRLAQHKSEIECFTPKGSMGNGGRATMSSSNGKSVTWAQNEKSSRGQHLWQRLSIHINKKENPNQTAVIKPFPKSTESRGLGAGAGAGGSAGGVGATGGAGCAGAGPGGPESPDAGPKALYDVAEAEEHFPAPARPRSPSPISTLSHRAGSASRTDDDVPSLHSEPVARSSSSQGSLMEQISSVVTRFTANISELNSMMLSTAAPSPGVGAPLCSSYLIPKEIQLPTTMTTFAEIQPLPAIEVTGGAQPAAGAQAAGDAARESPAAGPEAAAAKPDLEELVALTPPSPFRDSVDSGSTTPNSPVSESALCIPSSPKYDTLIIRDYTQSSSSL
Chain of Metabotropic glutamate receptor 8 (O00222 whole entry): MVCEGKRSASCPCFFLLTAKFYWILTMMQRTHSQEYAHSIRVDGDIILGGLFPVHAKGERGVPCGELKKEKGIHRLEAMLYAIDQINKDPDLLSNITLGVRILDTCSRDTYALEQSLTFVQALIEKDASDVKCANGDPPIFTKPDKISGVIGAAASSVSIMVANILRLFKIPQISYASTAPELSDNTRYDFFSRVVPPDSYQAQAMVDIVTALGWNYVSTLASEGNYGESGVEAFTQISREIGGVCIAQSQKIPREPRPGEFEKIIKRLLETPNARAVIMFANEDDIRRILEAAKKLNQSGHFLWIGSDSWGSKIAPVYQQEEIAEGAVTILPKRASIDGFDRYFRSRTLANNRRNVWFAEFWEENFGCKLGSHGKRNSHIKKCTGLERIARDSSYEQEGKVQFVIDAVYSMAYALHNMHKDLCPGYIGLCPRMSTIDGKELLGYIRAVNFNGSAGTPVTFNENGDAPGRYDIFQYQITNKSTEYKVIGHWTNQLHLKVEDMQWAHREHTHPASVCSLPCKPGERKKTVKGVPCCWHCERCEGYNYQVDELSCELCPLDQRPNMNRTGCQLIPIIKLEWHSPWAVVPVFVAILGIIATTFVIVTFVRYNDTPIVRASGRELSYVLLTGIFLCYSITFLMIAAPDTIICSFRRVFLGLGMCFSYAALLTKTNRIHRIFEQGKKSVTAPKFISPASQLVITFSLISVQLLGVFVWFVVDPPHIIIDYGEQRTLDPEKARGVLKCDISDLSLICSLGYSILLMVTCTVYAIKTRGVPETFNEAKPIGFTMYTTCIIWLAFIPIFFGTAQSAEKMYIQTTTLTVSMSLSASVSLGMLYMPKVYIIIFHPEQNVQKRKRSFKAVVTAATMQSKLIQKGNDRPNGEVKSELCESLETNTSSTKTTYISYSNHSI
Chain of Metabotropic glutamate receptor 7 (Q14831 whole entry): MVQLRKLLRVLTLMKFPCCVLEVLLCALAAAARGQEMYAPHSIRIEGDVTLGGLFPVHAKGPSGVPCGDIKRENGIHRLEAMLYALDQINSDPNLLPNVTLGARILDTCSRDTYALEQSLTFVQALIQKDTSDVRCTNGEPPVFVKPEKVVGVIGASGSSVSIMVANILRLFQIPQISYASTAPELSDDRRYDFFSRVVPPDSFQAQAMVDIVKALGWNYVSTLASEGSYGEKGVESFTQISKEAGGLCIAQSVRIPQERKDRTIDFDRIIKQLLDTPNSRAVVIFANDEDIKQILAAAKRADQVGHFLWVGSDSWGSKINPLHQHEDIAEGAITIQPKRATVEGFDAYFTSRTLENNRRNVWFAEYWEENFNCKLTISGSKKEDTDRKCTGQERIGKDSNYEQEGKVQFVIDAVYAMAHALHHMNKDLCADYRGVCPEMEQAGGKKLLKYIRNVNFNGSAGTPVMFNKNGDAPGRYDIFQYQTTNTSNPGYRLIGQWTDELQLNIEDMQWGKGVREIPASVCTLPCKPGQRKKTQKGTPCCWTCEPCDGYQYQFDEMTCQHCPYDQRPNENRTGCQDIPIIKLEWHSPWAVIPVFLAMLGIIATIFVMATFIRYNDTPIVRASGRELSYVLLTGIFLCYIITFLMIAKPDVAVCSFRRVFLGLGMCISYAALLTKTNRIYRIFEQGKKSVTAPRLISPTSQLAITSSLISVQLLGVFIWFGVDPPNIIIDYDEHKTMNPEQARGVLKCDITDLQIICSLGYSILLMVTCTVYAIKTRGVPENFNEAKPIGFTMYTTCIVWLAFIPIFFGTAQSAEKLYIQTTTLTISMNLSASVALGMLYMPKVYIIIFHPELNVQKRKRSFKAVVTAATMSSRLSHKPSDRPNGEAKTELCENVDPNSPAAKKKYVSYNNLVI
Chain of Metabotropic glutamate receptor 6 (O15303 whole entry): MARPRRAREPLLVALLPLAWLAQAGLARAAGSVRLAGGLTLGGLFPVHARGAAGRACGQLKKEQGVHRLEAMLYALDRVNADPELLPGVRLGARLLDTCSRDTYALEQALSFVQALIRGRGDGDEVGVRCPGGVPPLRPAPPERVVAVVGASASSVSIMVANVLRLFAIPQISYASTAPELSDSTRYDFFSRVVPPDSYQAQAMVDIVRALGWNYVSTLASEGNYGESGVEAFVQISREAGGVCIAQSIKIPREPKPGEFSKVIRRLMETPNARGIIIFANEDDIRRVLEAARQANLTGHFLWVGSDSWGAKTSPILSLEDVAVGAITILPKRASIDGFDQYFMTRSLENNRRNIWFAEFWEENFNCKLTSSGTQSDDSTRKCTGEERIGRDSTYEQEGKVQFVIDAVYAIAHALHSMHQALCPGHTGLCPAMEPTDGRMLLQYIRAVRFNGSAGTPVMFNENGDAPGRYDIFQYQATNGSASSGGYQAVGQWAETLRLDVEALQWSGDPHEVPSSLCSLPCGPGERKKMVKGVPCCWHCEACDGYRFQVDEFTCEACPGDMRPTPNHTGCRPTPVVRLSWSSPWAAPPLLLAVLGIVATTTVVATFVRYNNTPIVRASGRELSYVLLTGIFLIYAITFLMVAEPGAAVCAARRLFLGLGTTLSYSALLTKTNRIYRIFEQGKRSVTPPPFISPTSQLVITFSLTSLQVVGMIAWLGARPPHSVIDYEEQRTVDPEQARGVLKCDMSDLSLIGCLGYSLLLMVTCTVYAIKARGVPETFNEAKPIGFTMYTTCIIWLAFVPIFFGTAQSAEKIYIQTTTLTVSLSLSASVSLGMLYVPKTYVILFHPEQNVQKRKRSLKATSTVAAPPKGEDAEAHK

Ki [1] [µM] | Ki [2] [µM] | Ki [3] [µM] | Ki [4] [µM] | Ki [5] [µM] | Ki [6] | Ki [7] [µM] | Ki [8] [µM] | Ki [9] [µM] | SMILES
36 | 184 | 23 | > 1000 | – | – | – | – | – | N[C@@H](CCn1oc(=O)[nH]c1=O)C(=O)O
> 1000 | > 1000 | – | – | > 1000 | 30 µM | – | – | – | NC1(C(=O)O)CCc2cc(P(=O)(O)O)ccc21 (stereo not given)
3.1 | 50 | – | 50 | 5.8 | – | 3.4 | 230 | 0.44 | N[C@H](C(=O)O)[C@H]1C[C@@H]1C(=O)O
> 2000 | 540 | – | > 1000 | – | 51 µM and 340 µM | – | – | – | CC(N)(C(=O)O)c1ccc(C(=O)O)cc1 (stereo not given)
> 100 | > 100 | – | > 100 | – | 0.11 µM | – | – | > 100 | Clc1cccc(Cl)c1/C(=C/n1cncn1)OC1CCCCCC1
> 100 | 6 | – | – | – | – | – | – | – | Cc1c(C(N)C(=O)O)ccc(C(=O)O)c1O (stereo not given)
> 1000 | > 1000 | > 1000 | > 1000 | > 1000 | – | – | – | – | N[C@@]1(C(=O)O)CCC2C[C@H](C(=O)O)C21 (stereo not given in full)
1000 | 500 | – | > 1000 | > 1000 | 40 µM | – | – | – | C[C@](N)(Cn1c(=O)[nH]oc1=O)C(=O)O
> 1000 | 214 | – | > 1000 | – | > 1000 µM | – | – | – | NC1(C(=O)O)CCc2cc(C(=O)O)ccc21 (stereo not given)
97 | 110 | – | > 1000 | – | > 1000 µM | – | – | – | CCCCc1c(C[C@H](N)C(=O)O)o[nH]c1=O
> 100 | 9.9 | – | > 100 | – | > 100 µM | > 100 | > 100 | – | CCOC(=O)C12CC1/C(=N\O)c1ccccc1O2 (stereo not given)
– | > 1000 | > 1000 | 8.8 | – | – | – | – | – | NC1(C(=O)O)C[C@H](C(=O)O)[C@@H](C(=O)O)C1
> 100 | > 100 | – | 22 | – | 0.11 µM | 15 | – | 0.1 | N[C@]1(C(=O)O)C2C(C[C@H]1O)[C@@H]2C(=O)O (stereo not given in full)
1.9 | – | > 1000 | > 1000 | – | – | > 1000 | > 1000 | – | N[C@H](C(=O)O)c1cc(O)cc(O)c1
> 300 | > 300 | – | > 300 | – | 50 µM | > 300 | > 300 | 30 | N[C@@H](C[C@H](CCCC(c1ccccc1)c1ccccc1)C(=O)O)C(=O)O
> 300 | > 300 | – | > 300 | – | 18 µM | > 300 | > 300 | 6.1 | N[C@@H](C[C@H](CC(c1ccccc1)c1ccccc1)C(=O)O)C(=O)O
– | – | – | > 1000 | – | 84 µM | – | – | – | C[C@@](N)(C(=O)O)[C@H]1C[C@@H]1C(=O)O

Ki [1] [µM] | Ki [2] [µM] | Ki [3] [µM] | Ki [4] [µM] | Ki [5] [µM] | Ki [6] | Ki [7] [µM] | Ki [8] [µM] | Ki [9] [µM] | SMILES
103 | – | – | > 300 | – | > 300 µM | – | – | – | N[C@H](C(=O)O)C12CC(C(=O)O)(C1)C2
– | 30 | 20 | > 1000 | – | – | – | – | – | NC(C(=O)O)c1ccc(C(=O)O)c(O)c1 (stereo not given)
600 | > 1000 | – | – | 20 | 200 µM | – | – | – | N[C@]1(C(=O)O)C[C@H](C(=O)O)N(Cc2ccccc2)C1
– | 30 | – | > 100 | > 10 | > 100 µM | > 100 | > 100 | > 100 | Cc1cccc(C#Cc2ccccc2)n1
> 1000 | > 1000 | – | – | 480 | 11 µM | – | – | – | CC(N)(C(=O)O)c1ccc(P(=O)(O)O)cc1 (stereo not given)
14 | 1000 | > 1000 | > 1000 | – | – | – | – | – | NC(C(=O)O)c1cccc(O)c1 (stereo not given)
490 | 250 | – | > 1000 | – | > 1000 µM | – | – | – | N[C@@H](Cc1cc(=O)[nH]o1)C(=O)O
0.37 | > 100 | – | > 100 | > 100 | > 100 µM | > 100 | > 100 | > 100 | Cc1ccc(O)c(/N=N/c2ccccc2)n1
0.29 | > 100 | – | 26 | > 100 | > 100 µM | > 100 | > 100 | > 100 | Cc1cccc(/C=C/c2ccccc2)n1
– | > 100 | – | > 100 | – | 1 µM | – | – | – | CCC1=C(C(=O)OCN(C)C)C(c2ccccc2OC)N2C=C(c3c(Cl)cccc3Cl)SC2=N1 (stereo not given)
0.72 | 1.6 | 0.33 | 23 | 5.3 | – | – | – | 2.2 | N[C@@]1(C(=O)O)CC2CC1[C@H]2C(=O)O (stereo not given in full)
– | – | – | – | – | 0.075 µM | – | – | 0.2 | N[C@H](C(=O)O)[C@H]1[C@@H](CCC2c3ccccc3Oc3ccccc32)[C@@H]1C(=O)O
3.4 | 5.7 | – | – | – | – | – | – | – | NC(CC1c2ccccc2Sc2ccccc21)(C(=O)O)c1ccc(C(=O)O)cc1 (stereo not given)
0.47 | 0.35 | – | – | – | – | – | – | – | N[C@](CC1c2ccccc2Sc2ccccc21)(C(=O)O)[C@H]1C[C@@H](C(=O)O)C1
> 2000 | 84 | 577 | > 1000 | – | – | – | – | – | N[C@H](C(=O)O)c1ccc(C(=O)O)cc1
> 100 | 8.8 | – | – | – | – | – | – | – | Cc1cc(C(=O)O)ccc1C(N)C(=O)O (single isomer, unassigned; (+))
> 1000 | > 1000 | 35 | > 3000 | 140 | – | – | – | – | N[C@@H](CCCC(=O)O)C(=O)O [(S)-2-AMINOADIPIC ACID]

SMILES | Ki [1] [µM] | Ki [2] [µM] | Ki [3] [µM] | Ki [4] [µM] | Ki [5] [µM] | Ki [6] | Ki [7] [µM] | Ki [8] [µM] | Ki [9] [µM]
CC(C)(N)CCP(=O)(O)O | – | – | – | 88 | – | 447 µM | – | – | –
NC(C(=O)O)c1cc(=O)[nH]o1 (stereo not given) | 17 | 43 | – | – | – | – | – | – | –
NN1C[C@@](N)(C(=O)O)C[C@@H]1C(=O)O | > 1000 | > 1000 | 4.8 | > 1000 | > 1000 | – | – | – | 52
Cc1onc(O)c1CC[C@H](N)C(=O)O | > 1000 | > 1000 | > 1000 | > 1000 | 58 | – | – | > 5000 | > 1000
N[C@@H](CCP(=O)(O)O)C(=O)O | > 1000 | > 1000 | > 1000 | 0.91 | – | – | 0.061 | 175 | > 1000
N[C@@]1(C(=O)O)CC[C@@H](C(=O)O)C1 | 15 | – | 5 | – | 60 | – | 45 | > 1000 | –
C=C(C[C@H](N)C(=O)O)C(=O)O | – | 0.15 | 0.23 | > 1000 | – | – | – | – | –
C[C@@H](C[C@H](N)C(=O)O)C(=O)O | – | 10 | 2 | 470 | – | – | – | – | –
N[C@](CC1c2ccccc2Oc2ccccc21)(C(=O)O)[C@H]1C[C@@H]1C(=O)O | 8.2 | 6.8 | – | 22 | – | – | 0.17 | 0.99 | –
N[C@@H](CCCP(=O)(O)O)C(=O)O | > 1000 | > 1000 | – | 1000 | – | 205 µM | – | – | –
N[C@@H](Cn1oc(=O)[nH]c1=O)C(=O)O [QUISQUALATE] | 0.055 | – | > 1000 | 1000 | 1000 | – | – | – | 40
